Converted amounts (≈) assume the structure as drawn.
Experiments:
[1] = tested on: Microsporum canis; test: checkerboard drug interaction (FICI, MICc); assay type: cell-based;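 also: simplified diagonal checkerboard screen pairing antifungals with FPPS inhibitors, FICI calculated under the Loewe additivity model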
Method: (§1) Drug interactions between antifungals and FPPS inhibitors were investigated using a simplified checkerboard diagonal screening method ([45]). […] FICIs were determined according to the Loewe additivity model ([17]).

[2] = tested on: Cryptococcus tetragattii; test: MIC broth microdilution (CLSI); assay type: cell-based; settings: Cryptococcus tetragattii WM779
Method: (§2) Antifungal susceptibility was determined by broth microdilution according to the CLSI guidelines described in M27-Ed4 ([16]).

[3] = tested on: Epidermophyton floccosum; test: MIC broth microdilution (CLSI); assay type: cell-based; settings: Epidermophyon floccosum R-113
Method: as §2

[4] = tested on: Aspergillus terreus; test: MIC broth microdilution (CLSI); assay type: cell-based; settings: Aspergillus terreus 75-16-089-2500
Method: as §2

[5] = tested on: Candida dubliniensis; test: MIC broth microdilution (CLSI); assay type: cell-based; settings: Candida dubliniensis M230642
Method: as §2

[6] = tested on: Nannizzia gypsea; test: MIC broth microdilution (CLSI); assay type: cell-based; settings: Nannizzia gypsea R-131
Method: as §2

[7] = tested on: Fusarium oxysporum; test: MIC broth microdilution (CLSI); assay type: cell-based; settings: Fusarium oxysporum 07-200-3012
Method: as §2

[8] = tested on: Trichophyton tonsurans; test: checkerboard drug interaction (FICI, MICc); assay type: cell-based;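 also: simplified diagonal checkerboard screen combining antifungals with FPPS inhibitors, with FICI calculated under the Loewe additivity model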
Method: as §1

[9] = tested on: Aspergillus felis; test: MIC broth microdilution (CLSI); assay type: cell-based; settings: Aspergillus felis IHE87256683D6
Method: as §2

[10] = tested on: Pichia kudriavzevii; test: checkerboard drug interaction (FICI, MICc); assay type: cell-based;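 also: antifungal plus FPPS inhibitor interactions tested in a simplified diagonal checkerboard screen, with FICI calculated under the Loewe additivity model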
Method: as §1

[11] = tested on: Mucor circinelloides; test: checkerboard drug interaction (FICI, MICc); assay type: cell-based;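 also: simplified diagonal checkerboard screen pairing antifungals with FPPS inhibitors, FICI calculated under the Loewe additivity model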
Method: as §1

[12] = tested on: Candida parapsilosis; test: checkerboard drug interaction (FICI, MICc); assay type: cell-based;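 also: simplified diagonal checkerboard screen pairing antifungals with FPPS inhibitors, with FICI computed under the Loewe additivity model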
Method: as §1

[13] = tested on: Fusarium oxysporum; test: checkerboard drug interaction (FICI, MICc); assay type: cell-based;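 also: simplified diagonal checkerboard screen pairing antifungals with FPPS inhibitors, FICI calculated under the Loewe additivity model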
Method: as §1

[14] = tested on: Scedosporium apiospermum; test: MIC broth microdilution (CLSI); assay type: cell-based; settings: Scedosporium apiospermum 04-16-022-2268
Method: as §2

[15] = tested on: Fusarium solani; test: checkerboard drug interaction (FICI, MICc); assay type: cell-based;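 also: simplified diagonal checkerboard screen pairing antifungals with FPPS inhibitors, FICI derived under the Loewe additivity model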
Method: as §1

[16] = tested on: Candida tropicalis; test: checkerboard drug interaction (FICI, MICc); assay type: cell-based;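 also: simplified diagonal checkerboard screen of antifungal plus FPPS inhibitor combinations, with FICI computed by the Loewe additivity model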
Method: as §1

[17] = tested on: Cryptococcus gattii; test: checkerboard drug interaction (FICI, MICc); assay type: cell-based;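 also: simplified diagonal checkerboard screen pairing antifungals with FPPS inhibitors, FICI computed under the Loewe additivity model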
Method: as §1

[18] = tested on: Nannizzia gypsea; test: checkerboard drug interaction (FICI, MICc);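 also: simplified diagonal checkerboard screen pairing antifungals with FPPS inhibitors, FICI derived using the Loewe additivity model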
Method: as §1

[19] = tested on: Cryptococcus gattii; test: MIC broth microdilution (CLSI); assay type: cell-based; settings: Cryptococcus gattii PNG27
Method: as §2

[20] = tested on: Nannizzia nana; test: checkerboard drug interaction (FICI, MICc); assay type: cell-based;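 also: simplified diagonal checkerboard screen pairing antifungals with FPPS inhibitors, FICI calculated under the Loewe additivity model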
Method: as §1

[21] = tested on: Trichophyton soudanense; test: checkerboard drug interaction (FICI, MICc); assay type: cell-based;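 also: simplified diagonal checkerboard screen pairing antifungals with FPPS inhibitors, FICI computed under the Loewe additivity model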
Method: as §1

[22] = tested on: Candida tropicalis; test: MIC broth microdilution (CLSI); assay type: cell-based; settings: Candida tropicalis M230640
Method: as §2

[23] = tested on: Microsporum canis; test: MIC broth microdilution (CLSI); settings: Microsporum canis R-232
Method: as §2

Compound: Nc1nc(=O)[nH]cc1F [5FC, 5-flucytosine]
- antifungal MICc ([1]; in combination with 10-ZOL): 256
- antifungal MICc ([1]; in combination with ZOL): 512
- MIC / MEC [2]: 4 µg/mL (≈ 31 µM)
- MIC / MEC [3]: 64 µg/mL (≈ 496 µM)
- MIC / MEC [4]: 64 µg/mL (≈ 496 µM)
- MIC / MEC [5]: 0.25 µg/mL (≈ 1.94 µM)
- MIC / MEC [6]: >64 µg/mL
- MIC / MEC [7]: >64 µg/mL
- antifungal MICc ([8]; in combination with 10-ZOL): 64
- antifungal MICc ([8]; in combination with ZOL): 64
- MIC / MEC [9]: >64 µg/mL
- antifungal MICc ([10]; in combination with 10-ZOL): 16
- antifungal MICc ([10]; in combination with ZOL): 2
- antifungal MICc ([11]; in combination with 10-ZOL): 512
- antifungal MICc ([11]; in combination with ZOL): 512
- antifungal MICc ([12]; in combination with 10-ZOL): 0.125
- antifungal MICc ([12]; in combination with ZOL): 0.25
- antifungal MICc ([13]; in combination with 10-ZOL): 512
- antifungal MICc ([13]; in combination with ZOL): 512
- MIC / MEC [14]: >64 µg/mL
- antifungal MICc ([15]; in combination with 10-ZOL): 512
- antifungal MICc ([15]; in combination with ZOL): 256
- antifungal MICc ([16]; in combination with 10-ZOL): 0.5
- antifungal MICc ([16]; in combination with ZOL): 0.125
- antifungal MICc ([17]; in combination with 10-ZOL): 0.25
- antifungal MICc ([17]; in combination with ZOL): 0.125
- antifungal MICc ([18]; in combination with 10-ZOL): 512
- antifungal MICc ([18]; in combination with ZOL): 256
- MIC / MEC [19]: 0.5 µg/mL (≈ 3.87 µM)
- antifungal MICc ([20]; in combination with 10-ZOL): 32
- antifungal MICc ([20]; in combination with ZOL): 64
- antifungal MICc ([21]; in combination with 10-ZOL): 64
- antifungal MICc ([21]; in combination with ZOL): 64
- MIC / MEC [22]: 0.5 µg/mL (≈ 3.87 µM)
- MIC / MEC [23]: >64 µg/mL

Compound: C[C@@H]1[C@H](O)[C@@H](C)/C=C/C=C/C=C/C=C/C=C/C=C/C=C/[C@H](O[C@@H]2O[C@H](C)[C@@H](O)[C@H](N)[C@@H]2O)C[C@@H]2O[C@](O)(C[C@@H](O)C[C@@H](O)[C@H](O)CC[C@@H](O)C[C@@H](O)CC(=O)O[C@H]1C)C[C@H](O)[C@H]2C(=O)O [AMB, amphotericin B]
- antifungal MICc ([1]; in combination with 10-ZOL): 1
- antifungal MICc ([1]; in combination with ZOL): 0.5
- MIC / MEC [2]: 0.5 µg/mL (≈ 0.541 µM)
- MIC / MEC [3]: 0.5 µg/mL (≈ 0.541 µM)
- MIC / MEC [4]: 1 µg/mL (≈ 1.08 µM)
- MIC / MEC [5]: 0.25 µg/mL (≈ 0.271 µM)
- MIC / MEC [6]: 0.5 µg/mL (≈ 0.541 µM)
- MIC / MEC [7]: 1 µg/mL (≈ 1.08 µM)
- antifungal MICc ([8]; in combination with 10-ZOL): 0.25
- antifungal MICc ([8]; in combination with ZOL): 0.25
- MIC / MEC [9]: 4 µg/mL (≈ 4.33 µM)
- antifungal MICc ([10]; in combination with 10-ZOL): 0.25
- antifungal MICc ([10]; in combination with ZOL): 0.25
- antifungal MICc ([11]; in combination with 10-ZOL): 0.25
- antifungal MICc ([11]; in combination with ZOL): 0.25
- antifungal MICc ([12]; in combination with 10-ZOL): 0.5
- antifungal MICc ([12]; in combination with ZOL): 0.5
- antifungal MICc ([13]; in combination with 10-ZOL): 1
- antifungal MICc ([13]; in combination with ZOL): 0.5
- MIC / MEC [14]: 8 µg/mL (≈ 8.66 µM)
- antifungal MICc ([15]; in combination with 10-ZOL): 0.25
- antifungal MICc ([15]; in combination with ZOL): 0.25
- antifungal MICc ([16]; in combination with 10-ZOL): 0.5
- antifungal MICc ([16]; in combination with ZOL): 1
- antifungal MICc ([17]; in combination with 10-ZOL): 0.125
- antifungal MICc ([17]; in combination with ZOL): 0.25
- antifungal MICc ([18]; in combination with 10-ZOL): 0.5
- antifungal MICc ([18]; in combination with ZOL): 0.25
- MIC / MEC [19]: 0.25 µg/mL (≈ 0.271 µM)
- antifungal MICc ([20]; in combination with 10-ZOL): 1
- antifungal MICc ([20]; in combination with ZOL): 0.25
- antifungal MICc ([21]; in combination with 10-ZOL): 0.25
- antifungal MICc ([21]; in combination with ZOL): 0.5
- MIC / MEC [22]: 1 µg/mL (≈ 1.08 µM)
- MIC / MEC [23]: 1 µg/mL (≈ 1.08 µM)
